Experimental data published in patent publication US20230248847A1, “MULTIFUNCTIONAL NANOPARTICLES FOR THERAGNOSIS” (priority 2018, published 2023).

Legend:
[1] = test system: orthotopic xenograft tumours of MDA-MB-231 breast cancer cell line; assay: In vivo therapeutic efficacy, orthotopic MDA-MB-231 breast cancer xenograft; set-up: species or system NSG mice
Method: An orthotopic xenotransplantation of the triple-negative human MDA-MB-231 breast cancer cell line was performed in immunocompromised female NSG mice. The mice (5 per group) were divided into 3 groups and treated according to the protocol approved by the Institutional Animal Care and Use Committee (IACUC) of the University of Granada and the Regional Government of Andalusia according to the European Directive on the protection of animals used for scientific purposes (2010/63/EU) and Spanish law (Royal Decree 53/2013). […]

[2] = In vivo toxicity assays (survival, external signs, weight, motor activity); set-up: species or system NSG mice; conditions: for external side effects observed: intravenous every 3 days
Method: All the in vivo experiments were performed in NOD scid gamma mice (NSG, NOD.Cg-Prkdcscid II2rgtmlWjl/SzJ). The animal wellbeing and experimental methods were carried out according to institutional guidelines (Research Ethics Committee of University of Granada, Spain) and international guidelines (European Community Council Directive 86/609). All the animals (n=5 per group) were kept in a micro-ventilated cage system with a 12-h light/darkness cycle, and handled in a laminar flow cabinet to maintain the specific pathogen-free conditions. To establish orthotopic xenograft tumours, female mice six to eight weeks of age were used. The mice were anaesthetised by means of the inhalation of isoflurane and tumours were generated in the right breast by means of subcutaneous injections of 5×10^5 cells/mouse mixed with Corning® Matrigel® Matrix and with 26-gauge needles. The intravenous administration of PBS (control), free DOX, and NPs in the tail vein of the mice was performed every three days for a period of 43 days, as was the fluorescence evaluation by means of IVIS® (Perkin Elmer). Tumour growth was evaluated twice a week with a digital calibrator and tumour volume was calculated by means of the formula V=(length) 2×width×π/6. The weight of the mice was also measured every three days. The endpoint of the experiment was day 44. […] During that month, the fluorescence of the mice was analyzed in IVIS® once a week. Lastly, the mice were sacrificed by cervical dislocation and the tumours were extirpated, photographed, and analyzed by means of IVIS®.
In another assay, a series of experiments were carried out to control the in vivo toxicity of the treatment. […] The percentage of survival (FIG. 12) during the treatment period was 100% both for mice treated with NPs and for controls. However, treatment with DOX caused a high impact on survival. After 30 days of treatment, there was a drastic decrease in the percentage of survival (30%). This effect could be attributed to the inherent systemic toxicity of this anti-tumour drug and to the serious side effects of this conventional chemotherapy treatment.
Furthermore, in order to observe the toxic effect of the treatment at the central nervous system level, a standardised protocol for testing movement was carried out on day 30 in a cage with a camera prepared for this purpose. This camera analyzes the distance the mouse travels in 24 hours.

COc1cccc2c1C(=O)c1c(O)c3c(c(O)c1C2=O)C[C@@](O)(C(=O)CO)C[C@@H]3O[C@H]1C[C@H](N)[C@H](O)[C@H](C)O1 [doxorubicin]
histological analysis of xenograft tumour tissues (cellularity) ([1]; haematoxylin/eosin and DAPI staining after treatment, vs control group): cellularity decreased significantly
therapeutic effect on tumour growth / tumour volume ([1]; intravenous every 3 days for 43 days, NSG mice, n=5 per group, vs PBS): significant inhibition of tumour growth
time after which inhibition of tumour growth was significant ([1]; intravenous every 3 days, NSG mice): 3 weeks
external side effects observed ([2]; NSG mice, listed as DOX): high cutaneous toxicity caused in the tail
external side effects observed ([2]; NSG mice, listed as free DOX): weight loss, goose bumps, behaviour disorders, and damaged tail
percentage of survival ([2]; after 30 days of treatment, NSG mice): 30%
weight of mice during treatment ([2]; compared with untreated control mice or mice treated with theranostic NPs): significant weight reduction
motor activity (distance travelled in 24 hours) ([2]; day 30, cage with camera): significant decrease in mouse mobility
